Data taken from patent US20110092367A1, “Herbicidal Compositions Comprising 4-amino-3,6-dichloropyridine-2-carboxylic Acid” (BASF SE, priority 2008, published 2011).

Columns and labels:
Type in all cases: in vivo
Anthemis arvensis = assay: Field trial Example 2, combined application: ANTAR
Experimental: (§1) Aminiopyralid was used as commercial aquaeous solution having an active ingredient concentration of 240 g/l (Milestone™). Metazachlor was used as a commercial suspension concentrate having an active ingredient concentration of 500 g/l (Butisan S®).
(§2) The evaluation for the damage on undesired weeds caused by the chemical compositions was carried out using a scale from 0 to 100%, compared to the untreated control plants. Here, 0 means no damage and 100 means complete destruction of the plants.
(§3) The value E, which is to be expected if the activity of the individual compounds is just additive, was calculated using the method of S. R. Colby (1967) “Calculating synergistic and antagonistic responses of herbicide combinations”, Weeds 15, p. 22 ff.
(§4) The performance of aminopyralid, applied as an alone treatment at […] and 15 g ai/ha, and the performance of metazachlor, applied as an alone treatment at 375 and 500 g ai/ha, as well as the mixtures of the both compounds have been assessed in winter oilseed rape field trials. The trials have been conducted in Germany at two locations.
(§5) Post emergence treatment was applied by means of fine distributed nozzels at the growth stage (GS/BBCH 11/12).

oilseed rape = assay: Field trial Example 1, successive application: phytotoxicity (PHYTOX) on oilseed rape crop; settings: for PHYTOX (damage on the oilseed rape crop): DAT 205/DALT 190
Excerpt: as §1
(§6) The performance of aminopyralid applied as an alone treatment at 15, 30 and 50 g a.i./ha applied as an early post emergence treatment and an post emergence treatment in comparison to two different applications including metazachlor at 500 g a.i./ha as an early post emergence application in succession of aminopyralid as a post emergence application at 15 and 30 g a.i./ha was assessed in an oilseed rape field trials.
(§7) The early post emergence treatment was applied by means of fine distributed nozzles at the growth stage (GS) of the crop BBCH 11-12.
(§8) The post emergence treatment was applied by means of fine distributed nozzles at the growth stage (GS) of the crop BBCH 13-14.
(§9) The test period extended over the autumn and spring season (205 days).
(§10) In the following experiments, the herbicidal activity for the individual herbicide compounds (solo application) and of the herbicidal succession was assessed 4 times:
The evaluation for the damage on the oilseed rape crop, the plant injury or phytotoxicity (PHYTOX) caused by the chemical compositions was carried out using a scale from 0 to 100%, compared to the untreated control plants. Here, 0 means no damage and 100 means high injury of the plants.

Veronica persica = assay: Field trial Example 1, successive application: damage on VERPE
Excerpt: as §1, §6, §7, §8, §9, §10, §2

Papaver rhoeas [1] = assay: Field trial Example 1, successive application: damage on PAPRH
Excerpt: as §1, §6, §7, §8, §9, §10, §2

Papaver rhoeas [2] = assay: Field trial Example 2, combined application: PAPRH
Experimental: as §1, §2, §3, §4, §5

Alopecurus myosuroides [3] = assay: Field trial Example 1, successive application: damage on ALOMY
Excerpt: as §1, §6, §7, §8, §9, §10, §2

Alopecurus myosuroides [4] = assay: Field trial Example 2, combined application: ALOMY; settings: Aminopyralid 7.5 g ai/ha solo, 28 DAT
Experimental: as §1, §2, §3, §4, §5

[5] = Aminopyralid 7.5 g ai/ha solo, 29 DAT
[6] = 15 g ai/ha, treatment A early post emergence, DAT 25/DALT 10
[7] = 15 g ai/ha, treatment A early post emergence, DAT 65/DALT 50
[8] = 15 g ai/ha, treatment A early post emergence, DAT 176/DALT 161
[9] = 15 g ai/ha, treatment B post emergence, DAT 25/DALT 10
[10] = 15 g ai/ha, treatment B post emergence, DAT 65/DALT 50
[11] = 15 g ai/ha, treatment B post emergence, DAT 176/DALT 161
[12] = 30 g ai/ha, treatment A early post emergence, DAT 25/DALT 10
[13] = 30 g ai/ha, treatment A early post emergence, DAT 65/DALT 50
[14] = 30 g ai/ha, treatment A early post emergence, DAT 176/DALT 161
[15] = 30 g ai/ha, treatment B post emergence, DAT 25/DALT 10
[16] = 30 g ai/ha, treatment B post emergence, DAT 65/DALT 50
[17] = 30 g ai/ha, treatment B post emergence, DAT 176/DALT 161
[18] = 50 g ai/ha, treatment A early post emergence, DAT 25/DALT 10
[19] = 50 g ai/ha, treatment A early post emergence, DAT 65/DALT 50
[20] = 50 g ai/ha, treatment A early post emergence, DAT 176/DALT 161
[21] = 50 g ai/ha, treatment B post emergence, DAT 25/DALT 10
[22] = 50 g ai/ha, treatment B post emergence, DAT 65/DALT 50
[23] = 50 g ai/ha, treatment B post emergence, DAT 176/DALT 161
[24] = aminopyralid 15 g ai/ha, treatment A, DAT 205/DALT 190
[25] = aminopyralid 15 g ai/ha, treatment B, DAT 205/DALT 190
[26] = aminopyralid 30 g ai/ha, treatment A, DAT 205/DALT 190
[27] = aminopyralid 30 g ai/ha, treatment B, DAT 205/DALT 190
[28] = aminopyralid 50 g ai/ha, treatment A, DAT 205/DALT 190
[29] = aminopyralid 50 g ai/ha, treatment B, DAT 205/DALT 190

Nc1cc(Cl)nc(C(=O)O)c1Cl [aminopyralid, 4-amino-3,6-dichloropyridine-2-carboxylic acid]
% activity (Anthemis arvensis; [5]): 77%
% activity (Anthemis arvensis; Aminopyralid 15 g ai/ha solo, 29 DAT): 94%
% activity (Anthemis arvensis; Aminopyralid 15 g ai/ha solo, 78 DAT): 96%
PHYTOX (damage on oilseed rape crop) (oilseed rape; [6]): 11%
PHYTOX (damage on oilseed rape crop) (oilseed rape; [7]): 3%
PHYTOX (damage on oilseed rape crop) (oilseed rape; [8]): 2%
PHYTOX (damage on oilseed rape crop) (oilseed rape; [9]): 0%
PHYTOX (damage on oilseed rape crop) (oilseed rape; [10]): 0%
PHYTOX (damage on oilseed rape crop) (oilseed rape; [11]): 0%
PHYTOX (damage on oilseed rape crop) (oilseed rape; [12]): 27%
PHYTOX (damage on oilseed rape crop) (oilseed rape; [13]): 30%
PHYTOX (damage on oilseed rape crop) (oilseed rape; [14]): 0%
PHYTOX (damage on oilseed rape crop) (oilseed rape; [15]): 0%
PHYTOX (damage on oilseed rape crop) (oilseed rape; [16]): 0%
PHYTOX (damage on oilseed rape crop) (oilseed rape; [17]): 0%
PHYTOX (damage on oilseed rape crop) (oilseed rape; [18]): 40%
PHYTOX (damage on oilseed rape crop) (oilseed rape; [19]): 50%
PHYTOX (damage on oilseed rape crop) (oilseed rape; [20]): 0%
PHYTOX (damage on oilseed rape crop) (oilseed rape; [21]): 7%
PHYTOX (damage on oilseed rape crop) (oilseed rape; [22]): 0%
PHYTOX (damage on oilseed rape crop) (oilseed rape; [23]): 0%
PHYTOX (damage on the oilseed rape crop) (oilseed rape; aminopyralid 15 g ai/ha, treatment A): 0%
PHYTOX (damage on the oilseed rape crop) (oilseed rape; aminopyralid 15 g ai/ha, treatment B): 0%
PHYTOX (damage on the oilseed rape crop) (oilseed rape; aminopyralid 30 g ai/ha, treatment A): 0%
PHYTOX (damage on the oilseed rape crop) (oilseed rape; aminopyralid 30 g ai/ha, treatment B): 0%
PHYTOX (damage on the oilseed rape crop) (oilseed rape; aminopyralid 50 g ai/ha, treatment A): 0%
PHYTOX (damage on the oilseed rape crop) (oilseed rape; aminopyralid 50 g ai/ha, treatment B): 0%
damage on VERPE (Veronica persica; [6]): 0%
damage on VERPE (Veronica persica; [7]): 0%
damage on VERPE (Veronica persica; [8]): 0%
damage on VERPE (Veronica persica; [9]): 0%
damage on VERPE (Veronica persica; [10]): 0%
damage on VERPE (Veronica persica; [11]): 12%
damage on VERPE (Veronica persica; [12]): 23%
damage on VERPE (Veronica persica; [13]): 13%
damage on VERPE (Veronica persica; [14]): 12%
damage on VERPE (Veronica persica; [15]): 0%
damage on VERPE (Veronica persica; [16]): 0%
damage on VERPE (Veronica persica; [17]): 10%
damage on VERPE (Veronica persica; [18]): 73%
damage on VERPE (Veronica persica; [19]): 50%
damage on VERPE (Veronica persica; [20]): 50%
damage on VERPE (Veronica persica; [21]): 13%
damage on VERPE (Veronica persica; [22]): 20%
damage on VERPE (Veronica persica; [23]): 30%
damage on VERPE (Veronica persica; [24]): 0%
damage on VERPE (Veronica persica; [25]): 18%
damage on VERPE (Veronica persica; [26]): 12%
damage on VERPE (Veronica persica; [27]): 12%
damage on VERPE (Veronica persica; [28]): 48%
damage on VERPE (Veronica persica; [29]): 33%
damage on PAPRH (Papaver rhoeas [1]; [6]): 93%
damage on PAPRH (Papaver rhoeas [1]; [7]): 93%
damage on PAPRH (Papaver rhoeas [1]; [8]): 96%
damage on PAPRH (Papaver rhoeas [1]; [9]): 72%
damage on PAPRH (Papaver rhoeas [1]; [10]): 75%
damage on PAPRH (Papaver rhoeas [1]; [11]): 96%
damage on PAPRH (Papaver rhoeas [1]; [12]): 98%
damage on PAPRH (Papaver rhoeas [1]; [13]): 95%
damage on PAPRH (Papaver rhoeas [1]; [14]): 99%
damage on PAPRH (Papaver rhoeas [1]; [15]): 72%
damage on PAPRH (Papaver rhoeas [1]; [16]): 80%
damage on PAPRH (Papaver rhoeas [1]; [17]): 96%
damage on PAPRH (Papaver rhoeas [1]; [18]): 100%
damage on PAPRH (Papaver rhoeas [1]; [19]): 100%
damage on PAPRH (Papaver rhoeas [1]; [20]): 100%
damage on PAPRH (Papaver rhoeas [1]; [21]): 80%
damage on PAPRH (Papaver rhoeas [1]; [22]): 85%
damage on PAPRH (Papaver rhoeas [1]; [23]): 97%
damage on PAPRH (Papaver rhoeas [1]; [24]): 97%
damage on PAPRH (Papaver rhoeas [1]; [25]): 97%
damage on PAPRH (Papaver rhoeas [1]; [26]): 98%
damage on PAPRH (Papaver rhoeas [1]; [27]): 100%
damage on PAPRH (Papaver rhoeas [1]; [28]): 100%
damage on PAPRH (Papaver rhoeas [1]; [29]): 98%
% activity (Papaver rhoeas [2]; [5]): 94%
% activity (Papaver rhoeas [2]; Aminopyralid 7.5 g ai/ha solo, 72 DAT): 88%
% activity (Papaver rhoeas [2]; Aminopyralid 7.5 g ai/ha solo, 78 DAT): 95%
% activity (Papaver rhoeas [2]; Aminopyralid 15 g ai/ha solo, 28 DAT): 92%
% activity (Papaver rhoeas [2]; Aminopyralid 15 g ai/ha solo, 72 DAT): 97%
damage on ALOMY (Alopecurus myosuroides [3]; [6]): 0%
damage on ALOMY (Alopecurus myosuroides [3]; [7]): 22%
damage on ALOMY (Alopecurus myosuroides [3]; [8]): 22%
damage on ALOMY (Alopecurus myosuroides [3]; [9]): 0%
damage on ALOMY (Alopecurus myosuroides [3]; [10]): 25%
damage on ALOMY (Alopecurus myosuroides [3]; [11]): 25%
damage on ALOMY (Alopecurus myosuroides [3]; [12]): 57%
damage on ALOMY (Alopecurus myosuroides [3]; [13]): 37%
damage on ALOMY (Alopecurus myosuroides [3]; [14]): 37%
damage on ALOMY (Alopecurus myosuroides [3]; [15]): 0%
damage on ALOMY (Alopecurus myosuroides [3]; [16]): 32%
damage on ALOMY (Alopecurus myosuroides [3]; [17]): 32%
damage on ALOMY (Alopecurus myosuroides [3]; [18]): 77%
damage on ALOMY (Alopecurus myosuroides [3]; [19]): 80%
damage on ALOMY (Alopecurus myosuroides [3]; [20]): 80%
damage on ALOMY (Alopecurus myosuroides [3]; [21]): 20%
damage on ALOMY (Alopecurus myosuroides [3]; [22]): 42%
damage on ALOMY (Alopecurus myosuroides [3]; [23]): 42%
damage on ALOMY (Alopecurus myosuroides [3]; [24]): 22%
damage on ALOMY (Alopecurus myosuroides [3]; [25]): 38%
damage on ALOMY (Alopecurus myosuroides [3]; [26]): 37%
damage on ALOMY (Alopecurus myosuroides [3]; [27]): 32%
damage on ALOMY (Alopecurus myosuroides [3]; [28]): 80%
damage on ALOMY (Alopecurus myosuroides [3]; [29]): 42%
% activity (Alopecurus myosuroides [4]): 60%
